Measured values published in patent publication US11246877B2, “Nanoparticles for chemotherapy, targeted therapy, photodynamic therapy, immunotherapy, and any combination thereof” (The University of Chicago, priority 2016, dated 2022).
Where two headings read alike, the source gives them in different places.

Columns and labels:
A2780/CDDP cells [1] = test: In vitro cytotoxicity of cisplatin, OTS167 and NCP-1/OTS167; format: cell-based
Experimental: The cytotoxicity of NCP-1/OTS167 with different molar ratio was then evaluated.

A2780/CDDP cells [2] = test: In vitro cytotoxicity in ovarian cancer cells, MTS, 72 h; format: cell-based
Experimental: (§1) A2780, A2780/CDDP, and SKOV-3 cells were seeded into 96-well plate at 2000 cells/well for 24 h. Afterwards cells were treated with free DHA or Zn/DHA at various concentrations and incubated for another 72 h. The cell viability was then determined via MTS assay by microplate reader.
(§2) A2780, A2780/CDDP, and SKOV-3 cells were seeded into 96-well plate at 2000 cells/well for 24 h. Afterwards cells were treated with different formulations at various concentrations and incubated for another 72 h. The cell viability was then determined via MTS assay by microplate reader.

H69 cells = test: In vitro cytotoxicity of NCP-1/ET/siRNA in SCLC, MTS, 72 h; format: cell-based
Experimental: (§3) Small cell lung cancer (SCLC) cell lines H82 and H69 cells were seeded into 96-well plate at 2000 cells/well for 24 h. Afterwards, cells were treated by cisplatin, ET, cisplatin+ET, NCP-1, NCP-1/ET, and NCP-1/ET/siRNAs at various concentrations and incubated for another 72 h. The cell viability was then determined via MTS assay by microplate reader.

H82 cells [3] = test: as above; format: cell-based
Experimental: as §3

SKOV-3 cells = test: In vitro cytotoxicity in ovarian cancer cells, MTS, 72 h; format: cell-based; conditions: Homo sapiens, SK-OV-3; SKOV-3, 72 h, DHA concentration; read-out: IC50 of DHA (numbers in parenthesis)
Experimental: as §1, §2

A2780 cells = test: as above; format: cell-based; conditions: Homo sapiens; A2780, 72 h, DHA concentration; read-out: IC50 of DHA (numbers in parenthesis)
Experimental: as §1, §2

CT26 cells [4] = test: In vitro cytotoxicity of NCP-3/DHA; format: cell-based, murine
Experimental: (§4) The cytotoxicity of NCP-3/DHA was evaluated against two colon cancer cell lines CT26 and MC38.

MC38 cells [5] = test: In vitro cytotoxicity of NCP-3/DHA; format: cell-based, murine
Experimental: as §4

CT26 cells [6] = test: In vitro cytotoxicity of NCP-2/DHA; format: cell-based, murine
Experimental: (§5) The cytotoxicity of NCP-2/DHA was evaluated against two colon cancer cell lines CT26 and MC38. […] The combination index (CI50) for the two drugs was lower than 1 in some drug effect levels, indicating the syngestic effect between two drugs.

MC38 cells [7] = test: In vitro cytotoxicity of NCP-2/DHA; format: cell-based, murine
Experimental: as §5

H82 cells [8] = test: In vitro cytotoxicity against small cell lung cancer cells, MTS, 96 h; format: cell-based; conditions: Homo sapiens, NCI-H82, etoposide concentration
Experimental: H82 cells seeded on 96-well plates at a density of 2000 cells/well were treated with Zn/ET and free etoposide at various etoposide concentrations for 96 h. The cell viability was then detected by MTS assay (Promega, Madison, Wis., United States of America) and the IC50 values were calculated accordingly. […] ET is likely released from Zn/ET via intracellular reduction by endogenous thiol groups as shown below in Scheme 9.

H460 cells = test: In vitro cytotoxicity against non-small cell lung cancer cells, MTS, 72 h; format: cell-based; conditions: Homo sapiens, NCI-H460
Experimental: H460 and A549 cells seeded on 96-well plates at a density of 2000 cells/well were treated with Zn/PTX and free PTX at various […] concentrations for 72 h. The cell viability was then detected by MTS assay (Promega, USA) and the IC50 values were calculated accordingly.

CT26 cells [9] = test: In vitro cytotoxicity of NCP-2/PTX, MTS; format: cell-based, murine; conditions: read-out: Oxaliplatin IC50
Experimental: (§6) The cytotoxicity of NCP-2/PTX was evaluated against two colorectal cancer cells including murine colorectal adenocarcinoma CT26 and murine colorectal carcinoma MC38. By combining two chemotherapeutic agents with vastly different solubility requirements, NCP-2/PTX elicited substantial anticancer efficacy owing to synergy between the drugs.
(§7) The IC50 of oxaliplatin was substantially lower than that of paclitaxel by MTS assay, likely due to the hydrophobicity of paclitaxel. Paclitaxel was prepared in a stock solution of 3:1 ethanol:water ratio at 1 mg/ml before subsequent dilution to prepare free drug doses. The combination index (CI50) for the two drugs was much more favorable for the 1:1 compared to 2:1 molar ratio, with equal oxaliplatin doses.

MC38 cells [10] = test: In vitro cytotoxicity of NCP-2/PTX, MTS; format: cell-based, murine; conditions: MC38, drug ratio 1:1; read-out: Oxaliplatin IC50
Experimental: as §6, §7

HT29 cells = test: In vitro PDT cytotoxicity; format: cell-based, human; conditions: read-out: Oxaliplatin IC50
Experimental: (§8) The cytotoxicity of NCP-2@pyrolipid was evaluated against two colorectal cancer cells including murine colorectal adenocarcinoma CT26 and human colorectal adenocarcinoma HT29 cells. By combining chemotherapy of oxaliplatin and PDT modalities into one single nanoparticle, NCP-2@pyrolipid induces apoptosis/necrosis as well as elicit immunogenic cell death upon LED light irradiation. […] However, upon irradiation at 54 J/cm^2 light irradiation (670 nm), the oxaliplatin IC50 of NCP-2@pyrolipid was decreased by ˜4-fold and ˜5-fold in CT26 and HT29 cells, respectively.

CT26 cells [11] = test: Apoptosis/necrosis by Annexin V flow cytometry; format: cell-based, murine; conditions: CT26, 24 h, oxaliplatin concentration 10 μM
Experimental: CT26 cells seeded in 24-well plates at 1×10^5 cells/well were first incubated with NCP-3/DHA or appropriate controls for 24 h at an oxaliplatin concentration of 10 μM. The floating and adherent cells were collected and stained with Alexa Fluor 488 AnnexinV/dead cell apoptosis kit (Invitrogen, USA) according to manufacturer's instructions. The apoptosis and necrosis were examined by a flow cytometry (LSRII Blue, BD, Franklin Lakes, N.J., United States of America).

CT26 cells [12] = test: Immunogenic cell death: cell surface CRT by flow cytometry; format: cell-based, murine; conditions: CT26, oxaliplatin 10 μM and/or DHA 20 μM, 24 h
Experimental: In Vitro Immunogenic Cell Death The immunogenic cell death induced by NCP-3/DHA was evaluated by flow cytometry and ELISA. For flow cytometry analysis, CT26 cells were seeded at 1×10^6 cells per well in 6-well plates and further cultured for 24 h. The culture media were replaced by 2 mL of fresh culture media containing 10% FBS. Oxaliplatin, DHA, chol-DHA, oxaliplatin+DHA, NCP-3, Zn/DHA and NCP-3/DHA were added to the cells, respectively, at equivalent oxaliplatin and/or DHA dose of 10 μM and 20 μM, respectively. Cells incubated with PBS served as control. Following incubation of 24 h, the cells were collected, incubated with AlexaFluor 488-CRT antibody for 2 h, and stained with PI. The samples were analyzed by flow cytometer (LSRII Orange, BD, Franklin Lakes, N.J., United States of America) to identify cell surface CRT. The fluorescence intensity of stained cells was gated on PI-negative cells.

CT26 cells [13] = test: In vitro PDT cytotoxicity; format: cell-based, murine; conditions: read-out: Oxaliplatin IC50
Experimental: as §8

CT26 cells [14] = test: In vitro cytotoxicity of NCP-2/MTX; format: cell-based, murine; conditions: CT26, drug ratio 2:1; read-out: Oxaliplatin IC50
Experimental: (§9) The cytotoxicity of NCP-2/MTX was evaluated against two syngeneic cancer cell lines:colorectal adenocarcinoma CT26 and colorectal carcinoma MC38. By combining two chemotherapeutic agents with vastly different solubility requirements, NCP-2/MTX elicited substantial anticancer efficacy owing to synergy between the drugs. […] The combination index (CI50) for the two drugs was much more favorable for the 2:1 compared to 1:1 molar ratio, with equal Pt doses.

MC38 cells [15] = test: In vitro cytotoxicity of NCP-2/MTX; format: cell-based, murine; conditions: MC38, drug ratio 1:1; read-out: Oxaliplatin IC50
Experimental: as §9

CT26 cells [16] = test: In vitro PDT evoked immunogenic cell death (surface CRT); format: cell-based, murine; conditions: with or without irradiation, Pt 5 μM, pyrolipid 1.6 μM
Experimental: Calreticulin (CRT) is a distinct biomarker exposed on the surface of cells undergoing immunogenic cell death (ICD). The immunogenic cell death induced by NCP-2@pyrolipid was evaluated by immunofluorescence and flow cytometry. For immunofluorescence analysis, CT26 cells were seeded at 5×10^5 cells per well in 6-well plates and further cultured for 24 h. The culture media were replaced by 2 mL of fresh culture media containing 10% FBS. Oxaliplatin, NCP-2, NCP-2@pyrolipid, and porphysome were added to the cells, respectively, at an equivalent Pt dose of 5 μM and pyrolipid dose of 1.6 μM. Cells incubated with PBS served as control. After 24-h incubation, the cells were irradiated with LED light (670 nm) at 100 mW/cm^2 for 15 min (equal to 90 J/cm^2). Following further incubation of 4 h, the cells were washed with PBS three times, fixed with 4% paraformaldehyde, incubated with AlexaFluor 488-CRT antibody for 2 h, stained with DAPI, and observed under CLSM using 405 nm and 488 nm lasers for visualizing nuclei and CRT expression on the cell membrane, respectively. […] The samples were analyzed by flow cytometer (LSRII Orange, BD, Franklin Lakes, N.J., United States of America) to identify cell surface CRT. The fluorescence intensity of stained cells was gated on PI-negative cells.

CT26 cells [17] = test: HMGB-1 release by ELISA; format: cell-based, murine; conditions: CT26, oxaliplatin 10 μM and/or DHA 20 μM, 48 h
Experimental: The release of high mobility group box-1 (HMGB-1) protein after ICD was evaluated by ELISA. CT26 cells were seeded at 1×10^6 cells per well in 6-well plates and further cultured for 24 h. The culture media were replaced by 2 mL of fresh culture media containing 10% FBS. Oxaliplatin, DHA, chol-DHA, oxaliplatin+DHA, NCP-3, Zn/DHA, NCP-3/DHA, and NCP-3/OA-DHA were added to the cells, respectively, at equivalent oxaliplatin and/or DHA dose of 10 μM and 20 μM, respectively. Cells incubated with PBS served as control. Following incubation of 48 h, the supernatant was collected and analyzed by an ELISA kit (Chondrex, Inc., Redmond, Wash., United States of America) by microplate reader.

[18] = Mus musculus, CT26, DHA concentration, read-out: DHA IC50
[19] = Mus musculus, MC-38, MC38, DHA concentration, read-out: DHA IC50
[20] = CT26, read-out: Oxaliplatin IC50
[21] = MC38, read-out: Oxaliplatin IC50

SMILES: N.N.[Cl][Pt][Cl] [Cisplatin, cisplatin]
- IC50 (A2780/CDDP cells [1]; cisplatin concentration, read-out: IC50, Cisplatin): 12.8 ± 0.19 µM
- IC50 (A2780/CDDP cells [2]; cisplatin concentration, read-out: IC50 of cisplatin): 19.8 ± 4.01 µM
- IC50 (H69 cells): 13.2 ± 0.35 µM
- IC50 (H82 cells [3]): 7.93 ± 0.7 µM

SMILES: C[C@H]1[C@@H](O)O[C@@H]2O[C@@]3(C)CC[C@H]4[C@H](C)CC[C@@H]1[C@@]24OO3 [DHA, dihydroartemisinin]
- IC50 (SKOV-3 cells): 9.9 ± 0.34 µM
- IC50 (A2780 cells): 0.3 ± 0.11 µM
- IC50 (A2780/CDDP cells [2]; DHA concentration, read-out: IC50 of DHA (numbers in parenthesis)): 2.61 ± 0.18 µM
- IC50 (CT26 cells [4]; [18]): 6.25 ± 1.53 µM
- IC50 (MC38 cells [5]; [19]): 9.68 ± 1.12 µM
- IC50 (CT26 cells [6]; [18]): 7.77 ± 2.68 µM
- IC50 (MC38 cells [7]; [19]): 4.83 ± 1.12 µM

SMILES: COc1cc([C@@H]2c3cc4c(cc3[C@@H](O[C@@H]3O[C@@H]5CO[C@@H](C)O[C@H]5[C@H](O)[C@H]3O)[C@H]3COC(=O)[C@H]23)OCO4)cc(OC)c1O [Etoposide]
- IC50 (H82 cells [8]): 8.83 ± 0.13 µM
- IC50 (H69 cells; Homo sapiens, NCI-H69): 42.2 ± 0.61 µM
- IC50 (H82 cells [3]; Homo sapiens, NCI-H82): 30.9 ± 0.37 µM

SMILES: CC(=O)c1cnc2ccc(-c3cc(Cl)c(O)c(Cl)c3)nc2c1N[C@H]1CC[C@H](CN(C)C)CC1 [OTS167]
- IC50 (A2780/CDDP cells [1]; OTS167 concentration, read-out: IC50, OTS167): 0.0121 ± 0.00046 µM

SMILES: CC(=O)O[C@H]1C(=O)[C@@]2(C)[C@H]([C@H](OC(=O)c3ccccc3)[C@]3(O)C[C@H](OC(=O)[C@H](O)[C@@H](NC(=O)c4ccccc4)c4ccccc4)C(C)=C1C3(C)C)[C@]1(OC(C)=O)CO[C@@H]1C[C@@H]2O [PTX, Paclitaxel]
- IC50 (H460 cells): 10.8 ± 0.44 µM

SMILES: O=C1[O][Pt]2([NH][C@@H]3CCCC[C@H]3[NH]2)[O]C1=O [oxaliplatin]
- IC50 (CT26 cells [9]; CT26 (cell-line cell empty), drug ratio 2:1): 10.2 ± 0.98 µM
- IC50 (CT26 cells [9]; CT26, drug ratio 1:1): 7.05 ± 0.95 µM
- IC50 (MC38 cells [10]): 3.35 ± 0.13 µM
- IC50 (HT29 cells; HT29, irradiation No): 1.44 ± 0.32 µM
- IC50 (HT29 cells; HT29, irradiation Yes (670 nm, 54 J/cm^2)): 1.87 ± 0.31 µM
- apoptosis and necrosis (CT26 cells [11]): caused necrosis
- cell surface CRT expression (CT26 cells [12]): caused cell surface CRT expression
- IC50 (CT26 cells [13]; CT26, irradiation No): 5.05 ± 0.95 µM
- IC50 (CT26 cells [13]; CT26, irradiation Yes (670 nm, 54 J/cm^2)): 4.97 ± 0.49 µM
- IC50 (CT26 cells [4]; [20]): 10.3 ± 1.62 µM
- IC50 (MC38 cells [5]; [21]): 12.8 ± 1.32 µM
- IC50 (CT26 cells [14]): 7.05 ± 0.59 µM
- IC50 (MC38 cells [15]): 3.35 ± 0.13 µM
- surface CRT expression (CT26 cells [16]): significant amounts of CRT
- IC50 (CT26 cells [6]; [20]): 5.77 ± 1.06 µM
- IC50 (MC38 cells [7]; [21]): 7.87 ± 1.32 µM
- HMGB-1 release (CT26 cells [17]): HMGB-1 release
